Measured values as given in publication PMC12643063, “Mechanistic basis for inhibition of the extended‐spectrum β‐lactamase GES‐1 by enmetazobactam and tazobactam” (Febs Letters, 2025).

How the values were obtained:
[1] = target: T1, GES-1 (Guiana extended-spectrum β-lactamase 1) (Klebsiella pneumoniae, UniProt Q9KJY7); experiment: ([…] Å; […] Da aldehyde fragment on Ser70), mass spectrometry; IC50 by nitrocefin hydrolysis, […] min pre-incubation; type: biochemical
T1 construct: pOPIN-F, expressed in SoluBL21 (DE3) E. coli
T1 sequence (Q9KJY7 18-287): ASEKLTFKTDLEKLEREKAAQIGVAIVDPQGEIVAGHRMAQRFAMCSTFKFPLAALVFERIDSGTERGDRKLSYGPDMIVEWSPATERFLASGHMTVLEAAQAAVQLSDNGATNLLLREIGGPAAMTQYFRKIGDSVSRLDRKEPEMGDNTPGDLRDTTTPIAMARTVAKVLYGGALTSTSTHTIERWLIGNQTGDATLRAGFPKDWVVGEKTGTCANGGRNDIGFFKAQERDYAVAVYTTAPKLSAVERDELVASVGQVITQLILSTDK

[2] = target: T1, GES-1 (Guiana extended-spectrum β-lactamase 1); experiment: ([…] Å), mass spectrometry; IC50 by nitrocefin hydrolysis, […] min pre-incubation; type: biochemical

SMILES | IC50 [1] | IC50 [2]
C[C@]1(Cn2ccnn2)[C@H](C(=O)O)N2C(=O)C[C@H]2S1(=O)=O [tazobactam] | 0.444 µM | 
C[n+]1ccn(C[C@@]2(C)[C@H](C(=O)O)N3C(=O)C[C@H]3S2(=O)=O)n1 [enmetazobactam] |  | 0.107 µM
